Measurements: PubChem BioAssay AID1963858 (Molecular Pharmacology Branch, DTP, NCI, 2024)

Test system: HOP-62 multicell spheroids with HUVEC/MSC, viability
Test: Anticancer human tumor HOP-62 cell line growth inhibition [KRAS2];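 note: viability read after a week of compound exposure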;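 for viability, T/C: 100% = DMSO vehicle-treated spheroids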
Settings: for IC50: curve of first compound; for viability, T/C: stronger effect = lower value
Summary of the method: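 KRAS-mutant tumor cells were grown as spheroids with HUVEC endothelial cells and human MSCs as stroma. Targeted agents were tested alone and with KRAS pathway inhibitors. Doses started at or near clinical Cmax, or 10 microM, descending half-log.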

[1] = second compound 0.1 µM, first compound 0.0316 µM
[2] = second compound 0.1 µM, first compound 0.1 µM
[3] = second compound 0.316 µM, first compound 0.0316 µM
[4] = second compound 0.316 µM, first compound 0.1 µM
[5] = second compound 1 µM, first compound 0.0316 µM
[6] = second compound 1 µM, first compound 0.1 µM
[7] = second compound 3.16 µM, first compound 0.0316 µM
[8] = second compound 3.16 µM, first compound 0.1 µM

In the case of `Cn1ncnc1[C@H]1c2n[nH]c(=O)c3cc(F)cc(c23)N[C@@H]1c1ccc(F)cc1` + C=CC(=O)N1CCN(c2nc(OCC3CCCN3C)nc3c2CCN(c2cccc4cccc(C)c24)C3)CC1CC#N, the IC50 (second compound 0.0316 µM) is reported as > 100 nM, the IC50 (second compound 0.1 µM) is reported as 9.86 nM and the IC50 (second compound 0.316 µM) is reported as < 0.316 nM. The IC50 (second compound 1 µM) was < 0.316 nM, the IC50 (second compound 3.16 µM) was < 0.316 nM and the viability, T/C (second compound 0.0316 µM, first compound 0.000316 µM) was 88.8%. It also gave a viability, T/C (second compound 0.0316 µM, first compound 0.001 µM) of 79.7%, a viability, T/C (second compound 0.0316 µM, first compound 0.00316 µM) of 82.3% and a viability, T/C (second compound 0.0316 µM, first compound 0.01 µM) of 75.7%. For the same molecule, the viability, T/C (second compound 0.0316 µM, first compound 0.0316 µM) was 74.3%, the viability, T/C (second compound 0.0316 µM, first compound 0.1 µM) was 59.7% and the viability, T/C (second compound 0.1 µM, first compound 0.000316 µM) was 64.6%. For the same molecule, the viability, T/C (second compound 0.1 µM, first compound 0.001 µM) was 58.3%, the viability, T/C (second compound 0.1 µM, first compound 0.00316 µM) was 74% and the viability, T/C (second compound 0.1 µM, first compound 0.01 µM) was 49.8%. It also gave a viability, T/C [1] of 41.9%, a viability, T/C [2] of 44.7% and a viability, T/C (second compound 0.316 µM, first compound 0.000316 µM) of 48.7%. The viability, T/C (second compound 0.316 µM, first compound 0.001 µM) was 42%, the viability, T/C (second compound 0.316 µM, first compound 0.00316 µM) was 40.6% and the viability, T/C (second compound 0.316 µM, first compound 0.01 µM) was 38.5%. It also gave a viability, T/C [3] of 30.6%, a viability, T/C [4] of 33% and a viability, T/C (second compound 1 µM, first compound 0.000316 µM) of 32.4%. For the same molecule, the viability, T/C (second compound 1 µM, first compound 0.001 µM) was 30.2%, the viability, T/C (second compound 1 µM, first compound 0.00316 µM) was 27.1% and the viability, T/C (second compound 1 µM, first compound 0.01 µM) was 25.7%. For the same molecule, the viability, T/C [5] was 24.8%, the viability, T/C [6] was 22.1% and the viability, T/C (second compound 3.16 µM, first compound 0.000316 µM) was 0.61%. The viability, T/C (second compound 3.16 µM, first compound 0.001 µM) was 0.57%, the viability, T/C (second compound 3.16 µM, first compound 0.00316 µM) was 0.44% and the viability, T/C (second compound 3.16 µM, first compound 0.01 µM) was 0.5%. The viability, T/C [7] was 0.51% and the viability, T/C [8] was 0.71%.

`Cn1nccc1Nc1nccc(-c2cc3c(s2)C(C)(C)N(CCN2CCOCC2)C3=O)n1` + C=CC(=O)N1CCN(c2nc(=O)n(-c3c(C)ccnc3C(C)C)c3nc(-c4c(O)cccc4F)c(F)cc23)C(C)C1 gave an IC50 (second compound 0.1 µM) of 153 nM, an IC50 (second compound 0.316 µM) of 253 nM and an IC50 (second compound 1 µM) of 153 nM. The IC50 (second compound 3.16 µM) was 361 nM, the IC50 (second compound 10 µM) was < 31.6 nM and the viability, T/C [1] was 63.7%. The viability, T/C [2] was 56.7%, the viability, T/C (second compound 0.1 µM, first compound 0.316 µM) was 38.6% and the viability, T/C (second compound 0.1 µM, first compound 1 µM) was 23.9%. It also gave a viability, T/C (second compound 0.1 µM, first compound 3.16 µM) of 16.5%, a viability, T/C (second compound 0.1 µM, first compound 10 µM) of 17.1% and a viability, T/C [3] of 64.5%. For the same molecule, the viability, T/C [4] was 61.5%, the viability, T/C (second compound 0.316 µM, first compound 0.316 µM) was 47.3% and the viability, T/C (second compound 0.316 µM, first compound 1 µM) was 27.2%. The viability, T/C (second compound 0.316 µM, first compound 3.16 µM) was 20.4%, the viability, T/C (second compound 0.316 µM, first compound 10 µM) was 17% and the viability, T/C [5] was 63.7%. The viability, T/C [6] was 54.4%, the viability, T/C (second compound 1 µM, first compound 0.316 µM) was 41.3% and the viability, T/C (second compound 1 µM, first compound 1 µM) was 31.3%. For the same molecule, the viability, T/C (second compound 1 µM, first compound 3.16 µM) was 18.4%, the viability, T/C (second compound 1 µM, first compound 10 µM) was 24.6% and the viability, T/C [7] was 50%. It also gave a viability, T/C [8] of 55%, a viability, T/C (second compound 3.16 µM, first compound 0.316 µM) of 52.1% and a viability, T/C (second compound 3.16 µM, first compound 1 µM) of 34%. The viability, T/C (second compound 3.16 µM, first compound 3.16 µM) was 25.2%, the viability, T/C (second compound 3.16 µM, first compound 10 µM) was 25% and the viability, T/C (second compound 10 µM, first compound 0.0316 µM) was 46.1%. It also gave a viability, T/C (second compound 10 µM, first compound 0.1 µM) of 41.5%, a viability, T/C (second compound 10 µM, first compound 0.316 µM) of 33.8% and a viability, T/C (second compound 10 µM, first compound 1 µM) of 28.2%. It also gave a viability, T/C (second compound 10 µM, first compound 3.16 µM) of 27.6% and a viability, T/C (second compound 10 µM, first compound 10 µM) of 34.4%.
